These results are taken from US20220389008A1, “4-QUINOLINONE ANTIBACTERIAL COMPOUNDS” (Janssen Sciences Ireland Unlimited Company, priority 2019, published 2022).

SMILES strings stand for the structures.

The first data set relates to Mycobacterium tuberculosis strain H37Rv ΔctaE-ΔqcrCAB. Nature of the data set: microbe, parasite or virus in culture. Type of data set: cell-based. As to conditions: 240 h.
As a reminder, the IC50 is the concentration at which inhibition is half-maximal. With `Cc1c(-c2nc3ccc(-c4c[nH]nn4)cn3n2)[nH]c2ccccc2c1=O` [Compound 60], the IC50 is greater than 50 µM.
The compound `O=c1cc(-c2nc3ccc(-c4ccc(OC(F)(F)F)cc4)cn3n2)[nH]c2ccccc12` [Compound 65] gave an IC50 greater than 10 µM.
Same read-out and setting: in the case of `Cc1c(Cc2nc3ccc(-c4ccc(OC(F)(F)F)cc4)cn3n2)[nH]c2ccccc2c1=O` [Compound 67] it was 10.3 µM; in that of `COc1ccc2[nH]c(-c3nc4ccc(Br)cn4n3)c(C)c(=O)c2c1` [Compound 68], greater than 100 µM; in that of `Cc1c(-c2nc3ccc(-c4ccccc4)cn3n2)[nH]c2ccccc2c1=O` [Compound 72], 0.261 µM.
`COc1cc2[nH]c(-c3nc4ccc(Br)cn4n3)c(C)c(=O)c2cc1OC` [Compound 73] had an IC50 greater than 100 µM.
In the case of `Cc1c(-c2nc3ccc(Cl)cn3n2)[nH]c2ccccc2c1=O` [Compound 74], the IC50 was greater than 100 µM.
`Cc1c(-c2nc3ccc(OCC(F)(F)F)cn3n2)[nH]c2ccccc2c1=O` [Compound 77]: the IC50 was 1.85 µM.
Still for that read-out and setting: the same measure for `COc1ccc2[nH]c(-c3nc4ccc(-c5ccc(OC(F)(F)F)cc5)cn4n3)c(C)c(=O)c2c1Cl` [Compound 80]: greater than 25 µM; for `Cc1c(-c2nc3ccc(-c4cnn(CC(F)(F)F)c4)cn3n2)[nH]c2ccccc2c1=O` [Compound 81]: 16.7 µM; for `Cc1nnc(-c2ccc3nc(-c4[nH]c5ccccc5c(=O)c4C)nn3c2)s1` [Compound 82]: greater than 5 µM.

The next data set has as its system Mitochondrial toxicity (Glu/Gal). Kind of data set: Mitochondrial toxicity (Glu/Gal) assay. As to conditions: galactose medium; read-out: IC50, gal. Type of data set: cell-based. More on the design: key to Score: “negative” means that in the test, it was found to have low mitotoxicity (and hence no mitotoxicity alerts); “positive” means that there were some mitotoxicity alerts; “inconclusive” means that no accurate conclusion could be drawn. An excerpt:
The compounds of the invention/examples may have advantages associated with in vitro potency, kill kinetics (i.e. bactericidal effect) in vitro, PK properties, food effect, safety/toxicity (including liver toxicity, coagulation, 5-LO oxygenase), metabolic stability, Ames II negativity, MNT negativity, aqueous based solubility (and ability to formulate) and/or cardiovascular effect e.g. on animals (e.g. anesthetized guinea pig). The data below that was generated/calculated may be obtained using standard methods/assays, for instance that are available in the literature or which may be performed by a supplier (e.g. Microsomal Stability Assay—Cyprotex, Mitochondrial toxicity (Glu/Gal) assay—Cyprotex, as well as literature CYP cocktail inhibition assays).
For the compound `Cc1c(-c2nc3ccc(-c4c[nH]nn4)cn3n2)[nH]c2ccccc2c1=O` [Compound 60], the IC50 worked out at 100 µM.
With `O=c1cc(-c2nc3ccc(-c4ccc(OC(F)(F)F)cc4)cn3n2)[nH]c2ccccc12` [Compound 65], the IC50 amounted to 20 µM.
As for `Cc1c(Cc2nc3ccc(-c4ccc(OC(F)(F)F)cc4)cn3n2)[nH]c2ccccc2c1=O` [Compound 67], the IC50 is 0.39 µM.
In the case of `COc1ccc2[nH]c(-c3nc4ccc(Br)cn4n3)c(C)c(=O)c2c1` [Compound 68], the IC50 worked out at 100 µM.
For `Cc1c(-c2nc3ccc(-c4ccccc4)cn3n2)[nH]c2ccccc2c1=O` [Compound 72], the IC50 came out at 100 µM.
Turning to `COc1cc2[nH]c(-c3nc4ccc(Br)cn4n3)c(C)c(=O)c2cc1OC` [Compound 73], the IC50 turned out to be 100 µM.
Still for that read-out and setting: the same measure for `Cc1c(-c2nc3ccc(Cl)cn3n2)[nH]c2ccccc2c1=O` [Compound 74]: 121 µM.
Regarding `Cc1c(-c2nc3ccc(OCC(F)(F)F)cn3n2)[nH]c2ccccc2c1=O` [Compound 77], the IC50 was 200 µM.
Turning to `COc1ccc2[nH]c(-c3nc4ccc(-c5ccc(OC(F)(F)F)cc5)cn4n3)c(C)c(=O)c2c1Cl` [Compound 80], the IC50 was found to be 50 µM.
For the compound `Cc1c(-c2nc3ccc(-c4cnn(CC(F)(F)F)c4)cn3n2)[nH]c2ccccc2c1=O` [Compound 81], the IC50 is 200 µM.
Take `Cc1nnc(-c2ccc3nc(-c4[nH]c5ccccc5c(=O)c4C)nn3c2)s1` [Compound 82]: the IC50 turned out to be 50 µM.

Still in this data set, the particulars now being: glucose medium; read-out: IC50, glu.
Regarding `Cc1c(-c2nc3ccc(-c4c[nH]nn4)cn3n2)[nH]c2ccccc2c1=O` [Compound 60], the IC50 is 100 µM.
Regarding `O=c1cc(-c2nc3ccc(-c4ccc(OC(F)(F)F)cc4)cn3n2)[nH]c2ccccc12` [Compound 65], the IC50 was determined as 20 µM.
As for `Cc1c(Cc2nc3ccc(-c4ccc(OC(F)(F)F)cc4)cn3n2)[nH]c2ccccc2c1=O` [Compound 67], the IC50 stood at 30 µM.
Turning to `COc1ccc2[nH]c(-c3nc4ccc(Br)cn4n3)c(C)c(=O)c2c1` [Compound 68], the IC50 was 100 µM.
Turning to `Cc1c(-c2nc3ccc(-c4ccccc4)cn3n2)[nH]c2ccccc2c1=O` [Compound 72], the IC50 came to 100 µM.
`COc1cc2[nH]c(-c3nc4ccc(Br)cn4n3)c(C)c(=O)c2cc1OC` [Compound 73]: the IC50 worked out at 100 µM.
`Cc1c(-c2nc3ccc(Cl)cn3n2)[nH]c2ccccc2c1=O` [Compound 74]: the IC50 was 135 µM.
Regarding `Cc1c(-c2nc3ccc(OCC(F)(F)F)cn3n2)[nH]c2ccccc2c1=O` [Compound 77], the IC50 is 200 µM.
As to `COc1ccc2[nH]c(-c3nc4ccc(-c5ccc(OC(F)(F)F)cc5)cn4n3)c(C)c(=O)c2c1Cl` [Compound 80], the IC50 stood at 50 µM.
Regarding `Cc1c(-c2nc3ccc(-c4cnn(CC(F)(F)F)c4)cn3n2)[nH]c2ccccc2c1=O` [Compound 81], the IC50 amounted to 200 µM.
In the case of `Cc1nnc(-c2ccc3nc(-c4[nH]c5ccccc5c(=O)c4C)nn3c2)s1` [Compound 82], the IC50 turned out to be 50 µM.

The same data set, now with this note: mitotoxicity score.
With `Cc1c(-c2nc3ccc(-c4c[nH]nn4)cn3n2)[nH]c2ccccc2c1=O` [Compound 60], the Score result is “negative”.
On the same count and under the same terms, in the case of `O=c1cc(-c2nc3ccc(-c4ccc(OC(F)(F)F)cc4)cn3n2)[nH]c2ccccc12` [Compound 65] it was “negative”; in that of `Cc1c(Cc2nc3ccc(-c4ccc(OC(F)(F)F)cc4)cn3n2)[nH]c2ccccc2c1=O` [Compound 67], “positive”; in that of `COc1ccc2[nH]c(-c3nc4ccc(Br)cn4n3)c(C)c(=O)c2c1` [Compound 68], “negative”.
`Cc1c(-c2nc3ccc(-c4ccccc4)cn3n2)[nH]c2ccccc2c1=O` [Compound 72]: the Score entry was “negative”.
Regarding `COc1cc2[nH]c(-c3nc4ccc(Br)cn4n3)c(C)c(=O)c2cc1OC` [Compound 73], the Score entry is listed as “negative”.
Regarding `Cc1c(-c2nc3ccc(Cl)cn3n2)[nH]c2ccccc2c1=O` [Compound 74], the Score result is “negative”.
Turning to `Cc1c(-c2nc3ccc(OCC(F)(F)F)cn3n2)[nH]c2ccccc2c1=O` [Compound 77], the Score entry is recorded as “negative”.
In the case of `COc1ccc2[nH]c(-c3nc4ccc(-c5ccc(OC(F)(F)F)cc5)cn4n3)c(C)c(=O)c2c1Cl` [Compound 80], the Score result is “negative”.
Regarding `Cc1c(-c2nc3ccc(-c4cnn(CC(F)(F)F)c4)cn3n2)[nH]c2ccccc2c1=O` [Compound 81], the Score entry was “negative”.
Consider `Cc1nnc(-c2ccc3nc(-c4[nH]c5ccccc5c(=O)c4C)nn3c2)s1` [Compound 82], for which the Score entry is given as “negative”.

The same data set, now with this note: ratio glu/gal.
As to `Cc1c(-c2nc3ccc(-c4c[nH]nn4)cn3n2)[nH]c2ccccc2c1=O` [Compound 60], the “Δ IC50,glu/IC50,gal” value was “[x]0”.
The same measure, in the same setting: in the case of `O=c1cc(-c2nc3ccc(-c4ccc(OC(F)(F)F)cc4)cn3n2)[nH]c2ccccc12` [Compound 65] it was “[x]0”; in that of `Cc1c(Cc2nc3ccc(-c4ccc(OC(F)(F)F)cc4)cn3n2)[nH]c2ccccc2c1=O` [Compound 67], “[x]76.87”; in that of `COc1ccc2[nH]c(-c3nc4ccc(Br)cn4n3)c(C)c(=O)c2c1` [Compound 68], “[x]0”.
Turning to `Cc1c(-c2nc3ccc(-c4ccccc4)cn3n2)[nH]c2ccccc2c1=O` [Compound 72], the “Δ IC50,glu/IC50,gal” value is “[x]0”.
For the compound `COc1cc2[nH]c(-c3nc4ccc(Br)cn4n3)c(C)c(=O)c2cc1OC` [Compound 73], the “Δ IC50,glu/IC50,gal” value is “[x]0”.
The same measure, in the same setting: the same measure for `Cc1c(-c2nc3ccc(Cl)cn3n2)[nH]c2ccccc2c1=O` [Compound 74]: “[x]l.ll”; for `Cc1c(-c2nc3ccc(OCC(F)(F)F)cn3n2)[nH]c2ccccc2c1=O` [Compound 77]: “[x]0”; for `COc1ccc2[nH]c(-c3nc4ccc(-c5ccc(OC(F)(F)F)cc5)cn4n3)c(C)c(=O)c2c1Cl` [Compound 80]: “[x]0”.
On to `Cc1c(-c2nc3ccc(-c4cnn(CC(F)(F)F)c4)cn3n2)[nH]c2ccccc2c1=O` [Compound 81], for which the “Δ IC50,glu/IC50,gal” value was “[x]0”.
Same read-out and setting: the same measure for `Cc1nnc(-c2ccc3nc(-c4[nH]c5ccccc5c(=O)c4C)nn3c2)s1` [Compound 82]: “[x]0”.

For the next data set, the system named is Mycobacterium tuberculosis (strain H37Ra), cyt bd.
Test: not given
The settings on record: Mtb H37Ra; test compound 10 μM added after Compound X 0.9 μM.
Turning to `Cc1c(-c2nc3ccc(-c4c[nH]nn4)cn3n2)[nH]c2ccccc2c1=O` [Compound 60], the “(i) % OCR after cyt bd inhibitor” value is given as 114.505%.
`O=c1cc(-c2nc3ccc(-c4ccc(OC(F)(F)F)cc4)cn3n2)[nH]c2ccccc12` [Compound 65]: the “(i) % OCR after cyt bd inhibitor” value is 99.86%.
Take `Cc1c(Cc2nc3ccc(-c4ccc(OC(F)(F)F)cc4)cn3n2)[nH]c2ccccc2c1=O` [Compound 67]: the “(i) % OCR after cyt bd inhibitor” value was found to be 99.28%.
In the case of `COc1ccc2[nH]c(-c3nc4ccc(Br)cn4n3)c(C)c(=O)c2c1` [Compound 68], the “(i) % OCR after cyt bd inhibitor” value is 129.7%.
Take `Cc1c(-c2nc3ccc(-c4ccccc4)cn3n2)[nH]c2ccccc2c1=O` [Compound 72]: the “(i) % OCR after cyt bd inhibitor” value is reported as 99.84%.
On the same count and under the same terms, the same measure for `COc1cc2[nH]c(-c3nc4ccc(Br)cn4n3)c(C)c(=O)c2cc1OC` [Compound 73]: 105.2%.
For `Cc1c(-c2nc3ccc(Cl)cn3n2)[nH]c2ccccc2c1=O` [Compound 74], the “(i) % OCR after cyt bd inhibitor” value is recorded as 86.4%.
Regarding `Cc1c(-c2nc3ccc(OCC(F)(F)F)cn3n2)[nH]c2ccccc2c1=O` [Compound 77], the “(i) % OCR after cyt bd inhibitor” value came to 110.77%.
`COc1ccc2[nH]c(-c3nc4ccc(-c5ccc(OC(F)(F)F)cc5)cn4n3)c(C)c(=O)c2c1Cl` [Compound 80]: the “(i) % OCR after cyt bd inhibitor” value is 122.15%.
Consider `Cc1c(-c2nc3ccc(-c4cnn(CC(F)(F)F)c4)cn3n2)[nH]c2ccccc2c1=O` [Compound 81], for which the “(i) % OCR after cyt bd inhibitor” value came to 98.58%.
On the same count and under the same terms, in the case of `Cc1nnc(-c2ccc3nc(-c4[nH]c5ccccc5c(=O)c4C)nn3c2)s1` [Compound 82] it was 96.77%.

The same data set, now with this note: Mtb H37Ra; test compound 10 μM after Compound X 0.9 μM, then CCCP 1 μM.
As to `Cc1c(-c2nc3ccc(-c4c[nH]nn4)cn3n2)[nH]c2ccccc2c1=O` [Compound 60], the “(ii) % OCR after cccp” value is on record as 155.065%.
On to `O=c1cc(-c2nc3ccc(-c4ccc(OC(F)(F)F)cc4)cn3n2)[nH]c2ccccc12` [Compound 65], for which the “(ii) % OCR after cccp” value worked out at 158.97%.
Take `Cc1c(Cc2nc3ccc(-c4ccc(OC(F)(F)F)cc4)cn3n2)[nH]c2ccccc2c1=O` [Compound 67]: the “(ii) % OCR after cccp” value is on record as 161.97%.
Turning to `COc1ccc2[nH]c(-c3nc4ccc(Br)cn4n3)c(C)c(=O)c2c1` [Compound 68], the “(ii) % OCR after cccp” value is 164.4%.
Same read-out and setting: in the case of `Cc1c(-c2nc3ccc(-c4ccccc4)cn3n2)[nH]c2ccccc2c1=O` [Compound 72] it was 169.69%; in that of `COc1cc2[nH]c(-c3nc4ccc(Br)cn4n3)c(C)c(=O)c2cc1OC` [Compound 73], 171.2%.
On to `Cc1c(-c2nc3ccc(Cl)cn3n2)[nH]c2ccccc2c1=O` [Compound 74], for which the “(ii) % OCR after cccp” value is 173.3%.
Take `Cc1c(-c2nc3ccc(OCC(F)(F)F)cn3n2)[nH]c2ccccc2c1=O` [Compound 77]: the “(ii) % OCR after cccp” value was 175.26%.
Take `COc1ccc2[nH]c(-c3nc4ccc(-c5ccc(OC(F)(F)F)cc5)cn4n3)c(C)c(=O)c2c1Cl` [Compound 80]: the “(ii) % OCR after cccp” value was found to be 180.98%.
In the case of `Cc1c(-c2nc3ccc(-c4cnn(CC(F)(F)F)c4)cn3n2)[nH]c2ccccc2c1=O` [Compound 81], the “(ii) % OCR after cccp” value was determined as 182.7%.
Take `Cc1nnc(-c2ccc3nc(-c4[nH]c5ccccc5c(=O)c4C)nn3c2)s1` [Compound 82]: the “(ii) % OCR after cccp” value is recorded as 186.45%.
